The results in this text go back to PubChem BioAssay AID2060903 (Molecular Pharmacology Branch, DTP, NCI, 2025).

One may read the IC50 as the concentration that gives 50% inhibition. What is called viability, T/C is the result in the treated group divided by that in the control group, in per cent.

This assay concerns 377384-186-R-J1-PDC complex spheroid viability. Briefly: Anticancer human tumor 377384-186-R-J1-PDC patient-derived pancreatic carcinoma cell line growth inhibition [RAS]. The following applies: for IC50: curve of first compound; for viability, T/C: stronger effect = lower value. From the text: RAS pathway inhibitors in Combinations in Complex Spheroids
A high-throughput screen of multi-cell type tumor spheroids was designed to identify active combinations of RAS pathway inhibitors and targeted small molecules. Complex spheroids include a stromal component modeled by human endothelial cells (HUVEC) and fibroblasts modeled by human mesenchymal stem cells (MSCs). The concentration ranges selected for each drug and investigational agent were based upon clinically achievable concentrations if the clinical Cmax of the agent was known.
Compounds. The drugs and investigational agents: abemaciclib (NSC768073), cobimetinib (NSC768068), divarasib (GDC6063, NSC841802), docetaxel (NSC628503), GDC-1971 (RLY-1971, NSC841576), gemcitabine (NSC613327), inavolisib (NSC800729), ipatasertib (NSC767898), KB-0742 (NSC834161), MRTX-1133 (NSC836407), osimertinib (NSC779217), RMC-4630 (NSC839698), RMC-6236 (NSC851965), RMC-6291 (NSC852671), Ro-3306 (NSC812927), sapanisertib (NSC764658), SN-38 (NSC673596), staurosporine (NSC755774), SY5609 (NSC837396), and tovorafenib (DAY101, NSC766906), were obtained from the National Cancer Institute (NCI) Developmental Therapeutics Program Chemical Repository. The FDA-approved anticancer drug set is available from the NCI Developmental Therapeutics Program. […] The stock solutions were prepared in dimethyl sulfoxide (DMSO, Sigma-Aldrich, St. Louis, MO, cat. D2650) at 800-fold the tested concentration and stored at -70 degrees C prior to their use. All drugs and investigational agents were tested over a range starting from a high concentration at or near the clinical Cmax and decreasing in half-log increments. If the clinical Cmax for an agent had not been determined, the highest concentration tested was 10 microM.
Cell Culture. All cells were maintained in an incubator at 37 degrees C and 5% CO2 with 95% humidity. The PDC lines were cultured according to standard operating procedures established by the NCI PDMR. All PDCs were thawed and cultured in Matrigel-coated flasks prepared with a working solution of 1X Ham's F-12 nutrient mix, without supplementation (Invitrogen, Waltham, MA, cat. 11765054), 100 U/mL penicillin-streptomycin (Invitrogen, cat. 15140122), and 2.5% Matrigel (Corning Inc., Corning, NY, cat. 354248) for the first three passages. The 362531-283-R-J2-PDC and 782815-120-R-J1-PDC lines were cultured in 6C/Colon 1B media, which includes advanced DMEM/F-12 (Thermo Fisher Scientific, cat. 12634028), 10 mM HEPES (Thermo Fisher Scientific, cat. 15630080), 1X GlutaMAX supplement (Thermo Fisher Scientific, cat. 35050061), 0.1 mg/mL primocin (InvivoGen, San Diego, CA, cat. ant-pm-2), 10% defined fetal bovine serum, heat inactivated (HyClone Laboratories Inc., Logan, UT, cat. SH30070.03HI), 50% L-WRN conditioned media (ATCC, cat. CRL-3276), 1.25 mM N-Acetyl-L-cysteine (Sigma-Aldrich, cat. A9165), 10 mM nicotinamide (Sigma-Aldrich, cat. N0636), 1X B-27 supplement (Thermo Fisher Scientific, cat. 17504044), 1X N-2 supplement (Thermo Fisher Scientific, cat. 17502048), 50 ng/mL human EGF (Thermo Fisher Scientific, cat. PHG0311), and 10 microM Y-27632 dihydrochloride (Tocris Bioscience, cat. 1254). The K12877-001-R-J1-PDC line was cultured in 6I media, which includes all 6C/Colon 1B media plus 10 ng/mL human FGF-10 (PeproTech, cat. 100-26), 1 ng/mL human FGF-2 (PeproTech, cat. 100-18B), 1 µM prostaglandin E2 (Tocris Bioscience, cat. 2296), […] hydrocortisone (Sigma-Aldrich, cat. H4001), and […] bovine insulin (Sigma-Aldrich, cat. I6634). The K86415-001-R-J1-PDC line was cultured in 6D media, which includes all 6C/Colon 1B media components minus the L-WRN conditioned media. The 485176-168-R4-J1-PDC was cultured in PANC media, which includes all 6C/Colon 1B media plus 100 ng/mL human FGF-10 (PeproTech, cat. 100-26), 500 nM SB-431542 (Selleckchem, cat. S1067), and 10 nM gastrin (Tocris Bioscience, cat. 3006). […]
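Note: spheroids exposed to compounds for seven days before readout.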

In the case of `NC1c2ccccc2OC12CCN(c1cnc3c(N4CCCc5ncccc54)n[nH]c3n1)CC2` (stereo unspecified) + C#Cc1c(F)ccc2cc(O)cc(-c3ncc4c(N5CC6CCC(C5)N6)nc(OCC56CCCN5CC(F)C6)nc4c3F)c12, the IC50 is below 31.6 nM (second compound 0.0316 µM); below 31.6 nM (second compound 0.1 µM); below 31.6 nM (second compound 0.316 µM); below 31.6 nM (second compound 1 µM); below 31.6 nM (second compound 3.16 µM); below 31.6 nM (second compound 10 µM). Besides, the viability, T/C reads like this: (second compound 0.0316 µM, first compound 0.0316 µM) 2.52%; (second compound 0.0316 µM, first compound 0.1 µM) 1.69%; (second compound 0.0316 µM, first compound 0.316 µM) 1.2%; (second compound 0.0316 µM, first compound 1 µM) 0.72%; (second compound 0.0316 µM, first compound 3.16 µM) 0.33%; (second compound 0.0316 µM, first compound 10 µM) 0.32%. Further, the viability, T/C runs as follows: (second compound 0.1 µM, first compound 0.0316 µM) 1.81%; (second compound 0.1 µM, first compound 0.1 µM) 1.39%; (second compound 0.1 µM, first compound 0.316 µM) 0.82%; (second compound 0.1 µM, first compound 1 µM) 0.62%; (second compound 0.1 µM, first compound 3.16 µM) 0.38%; (second compound 0.1 µM, first compound 10 µM) 0.25%. The viability, T/C is 1.2% (second compound 0.316 µM, first compound 0.0316 µM); 0.66% (second compound 0.316 µM, first compound 0.1 µM); 0.72% (second compound 0.316 µM, first compound 0.316 µM); 0.67% (second compound 0.316 µM, first compound 1 µM); 0.35% (second compound 0.316 µM, first compound 3.16 µM); 0.35% (second compound 0.316 µM, first compound 10 µM). In addition, the viability, T/C by setting is: (second compound 1 µM, first compound 0.0316 µM) 1.27%; (second compound 1 µM, first compound 0.1 µM) 1.46%; (second compound 1 µM, first compound 0.316 µM) 0.57%; (second compound 1 µM, first compound 1 µM) 0.5%; (second compound 1 µM, first compound 3.16 µM) 0.21%; (second compound 1 µM, first compound 10 µM) 0.22%. Also, the viability, T/C is, setting by setting: (second compound 3.16 µM, first compound 0.0316 µM) 0.86%; (second compound 3.16 µM, first compound 0.1 µM) 1.11%; (second compound 3.16 µM, first compound 0.316 µM) 0.52%; (second compound 3.16 µM, first compound 1 µM) 0.29%; (second compound 3.16 µM, first compound 3.16 µM) 0.29%; (second compound 3.16 µM, first compound 10 µM) 0.34%. Besides, the viability, T/C was 0.92% (second compound 10 µM, first compound 0.0316 µM); 0.33% (second compound 10 µM, first compound 0.1 µM); 0.31% (second compound 10 µM, first compound 0.316 µM); 0.14% (second compound 10 µM, first compound 1 µM); 0.19% (second compound 10 µM, first compound 3.16 µM); 0.12% (second compound 10 µM, first compound 10 µM).

In the case of `CC(C)n1nc(-c2ccc3oc(N)nc3c2)c2c(N)ncnc21`, the viability, T/C (compound 0.001 µM) was 80.6% [middle of 4 runs]; the viability, T/C (compound 0.00316 µM) is 69% [middle of 4 runs]; the viability, T/C (compound 0.01 µM) was 61.9% [middle of 4 runs]; the viability, T/C (compound 0.0316 µM) was 34.8% [middle of 4 runs].
